Results on eleven molecules are retold here after patent US12110294B2, “CD73 compounds” (Gilead Sciences, Inc., priority 2020, dated 2024).

In the test the target is T1, CD73 activity in MDA-MB-231-GFP cells (Homo sapiens, UniProt P21589).
T1 construct: endogenous in cells; host or cells: MDA-MB-231-GFP cells
T1 sequence (P21589 27-549): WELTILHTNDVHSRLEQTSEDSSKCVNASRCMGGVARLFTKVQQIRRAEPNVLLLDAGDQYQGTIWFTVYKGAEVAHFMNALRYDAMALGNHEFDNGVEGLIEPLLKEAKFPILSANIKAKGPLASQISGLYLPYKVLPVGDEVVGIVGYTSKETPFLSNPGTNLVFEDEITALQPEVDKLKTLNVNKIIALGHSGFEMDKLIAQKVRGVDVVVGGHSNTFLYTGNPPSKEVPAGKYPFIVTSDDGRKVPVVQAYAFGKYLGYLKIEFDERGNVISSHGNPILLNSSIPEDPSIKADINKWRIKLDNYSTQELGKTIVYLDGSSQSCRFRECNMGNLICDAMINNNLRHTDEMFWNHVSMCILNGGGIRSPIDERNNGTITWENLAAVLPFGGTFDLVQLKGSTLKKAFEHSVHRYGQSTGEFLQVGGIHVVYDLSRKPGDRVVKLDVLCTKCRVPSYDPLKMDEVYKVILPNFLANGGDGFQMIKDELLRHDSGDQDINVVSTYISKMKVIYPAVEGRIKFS
Briefly: MDA-MB-231 Cell Based CD73 Activity Assay (DMEM). The conditions noted are these: 3000 cells per well, DMEM medium with 10% human plasma, overnight compound treatment, AMP 200 uM.

SMILES strings stand for the structures. pEC50: −log10 of the molar value.

Molecule `O=c1[nH]cc(-c2cc([C@H]3C[C@@H]3c3cnn(C(F)F)c3)c3nccn3n2)c(=O)[nH]1` (racemic) [Example 368, 5-(8-((2S,2S)-2-(1-(difluoromethyl)-1H-pyrazol-4-yl)cyclopropyl)imidazo[1,2-b]pyridazin-6-yl)pyrimidine-2,4(1H,3H)-dione] showed a negative logarithm of the EC50 (pEC50) of 7.69.

For `O=c1[nH]cc(-c2cc([C@H]3C[C@@H]3c3ccn(C(F)F)n3)c3nccn3n2)c(=O)[nH]1` (racemic) [Example 369, 5-(8-((1S,2S)-2-(1-(difluoromethyl)-1H-pyrazol-3-yl)cyclopropyl)imidazo[1,2-b]pyridazin-6-yl)pyrimidine-2,4(1H,3H)-dione], the pEC50 is 7.56.

For the molecule `O=c1[nH]cc(-c2cc([C@H]3C[C@@H]3c3cnn(C(F)F)c3)c3ncc(F)n3n2)c(=O)[nH]1` (racemic) [Example 370, 5-(8-((1S,2S)-2-(1-(difluoromethyl)-1H-pyrazol-4-yl)cyclopropyl)-3-fluoroimidazo[1,2-b]pyridazin-6-yl)pyrimidine-2,4(1H,3H)-dione], the pEC50 is 7.80.

`O=c1[nH]cc(-c2cc([C@H]3C[C@@H]3c3ccc(OC(F)(F)F)cn3)c3nccn3n2)c(=O)[nH]1` (racemic) [Example 372, 5-(8-((1S,2S)-2-(5-(trifluoromethoxy)pyridin-2-yl)cyclopropyl)imidazo[1,2-b]pyridazin-6-yl)pyrimidine-2,4(1H,3H)-dione] gave a pEC50 of 8.03.

On to `O=c1[nH]cc(-c2cc([C@H]3C[C@@H]3c3ccc(OC(F)(F)F)cn3)c3ncc(F)n3n2)c(=O)[nH]1` (racemic) [Example 374, 5-(3-fluoro-8-((2S,2S)-2-(5-(trifluoromethoxy)pyridin-2-yl)cyclopropyl)imidazo[1,2-b]pyridazin-6-yl)pyrimidine-2,4(1H,3H)-dione], for which the pEC50 was 7.86.

With `O=c1[nH]cc(-c2cc([C@H]3C[C@@H]3c3ccc(OC(F)(F)F)nc3)c3nccn3n2)c(=O)[nH]1` (racemic) [Example 376, 5-(8-((2S,2S)-2-(6-(trifluoromethoxy)pyridin-3-yl)cyclopropyl)imidazo[1,2-b]pyridazin-6-yl)pyrimidine-2,4(1H,3H)-dione], the pEC50 was 7.71.

Take `O=c1[nH]cc(-c2cc([C@H]3C[C@@H]3c3ncc(C(F)(F)F)cn3)c3nccn3n2)c(=O)[nH]1` (racemic) [Example 377, 5-(8-((1S,2S)-2-(5-(trifluoromethyl)pyrimidin-2-yl)cyclopropyl)imidazo[1,2-b]pyridazin-6-yl)pyrimidine-2,4(1H,3H)-dione]: the pEC50 was 7.64.

`O=c1[nH]cc(-c2cc([C@H]3C[C@@H]3c3ncc(C(F)(F)F)cn3)c3ncc(F)n3n2)c(=O)[nH]1` (racemic) [Example 378, 5-(3-fluoro-8-((1S,2S)-2-(5-(trifluoromethyl)pyrimidin-2-yl)cyclopropyl)imidazo[1,2-b]pyridazin-6-yl)pyrimidine-2,4(1H,3H)-dione] had a pEC50 of 7.72.

Consider `N#Cc1ccc([C@H]2C[C@@H]2c2cc(-c3c[nH]c(=O)[nH]c3=O)nn3ccnc23)c(F)c1` (racemic) [Example 407, 4-((2S,2S)-2-(6-(2,4-dioxo-1,2,3,4-tetrahydropyrimidin-5-yl)imidazo[1,2-b]pyridazin-8-yl)cyclopropyl)-3-fluorobenzonitrile], for which the negative logarithm of the EC50 (pEC50) was 7.83.

Take `N#Cc1cccc([C@H]2C[C@@H]2c2cc(-c3c[nH]c(=O)[nH]c3=O)nn3ccnc23)c1F` (racemic) [Example 408, 3-((1S,2S)-2-(6-(2,4-dioxo-1,2,3,4-tetrahydropyrimidin-5-yl)imidazo[1,2-b]pyridazin-8-yl)cyclopropyl)-2-fluorobenzonitrile]: the pEC50 was 8.13.

As to `N#Cc1ccc([C@H]2C[C@@H]2c2cc(-c3c[nH]c(=O)[nH]c3=O)nn3ccnc23)cc1C(F)(F)F` (racemic) [Example 411, 4-((1S,2S)-2-(6-(2,4-dioxo-1,2,3,4-tetrahydropyrimidin-5-yl)imidazo[1,2-b]pyridazin-8-yl)cyclopropyl)-2-(trifluoromethyl)benzonitrile], the pEC50 is 7.37.

As usually defined, the pEC50 is −log10 of the EC50, conventionally taken in molar units.
